Data reported in the supplement of paper PMC10883282.

Columns and labels:
Assay in all cases: relative viability vs DMSO control (72 h) (fraction); higher = more viable cells
[1] = test system: SW872
Method in brief: (§1)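 Serially diluted compound, 2.5 µl from source plates spanning 10 mM to 0.0002 mM, was added 24 h after sarcoma cell lines were seeded in 384-well plates at densities targeting 80–90% confluence. Plates then sat 72 h at 37 °C, 5% CO2, with 0.1% DMSO vehicle and a 5 µM positive control. Relative viability came from ATPLite as percent growth, averaged over up to triplicate wells, and was rescaled with 1 as full and 0 as none.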

[2] = test system: A204
Method in brief: as §1

[3] = test system: SYO-1
Method in brief: as §1

[4] = test system: SK-ES-1
Method in brief: as §1

[5] = test system: SW982
Method in brief: as §1

[6] = test system: HS729
Method in brief: as §1

[7] = test system: KHOS-240S
Method in brief: as §1

[8] = test system: SW1353
Method in brief: as §1

[9] = test system: G401
Method in brief: as §1

[10] = test system: SW684
Method in brief: as §1

[11] = test system: MES-SA
Method in brief: as §1

[12] = test system: SK-LMS-1
Method in brief: as §1

CO[C@H]1C[C@@H]2CC[C@@H](C)[C@@](O)(O2)C(=O)C(=O)N2CCCC[C@H]2C(=O)O[C@H]([C@H](C)C[C@@H]2CC[C@@H](O)[C@H](OC)C2)CC(=O)[C@H](C)/C=C(\C)[C@@H](O)[C@@H](OC)C(=O)[C@H](C)C[C@H](C)/C=C/C=C/C=C/1C [Rapamycin]
Conditions | relative viability
[1], 0.00017 µM | 0.867
[1], 0.00051 µM | 0.787
[1], 0.00152 µM | 0.729
[1], 0.00457 µM | 0.659
[1], 0.01372 µM | 0.602
[1], 0.04115 µM | 0.565
[1], 0.1235 µM | 0.543
[1], 0.3704 µM | 0.548
[1], 1.111 µM | 0.561
[1], 3.333 µM | 0.567
[1], 10 µM | 0.553
[2], 0.00017 µM | 0.894
[2], 0.00051 µM | 0.707
[2], 0.00152 µM | 0.614
[2], 0.00457 µM | 0.542
[2], 0.01372 µM | 0.513
[2], 0.04115 µM | 0.499
[2], 0.1235 µM | 0.489
[2], 0.3704 µM | 0.464
[2], 1.111 µM | 0.453
[2], 3.333 µM | 0.425
[2], 10 µM | 0.408
[3], 0.00017 µM | 0.954
[3], 0.00051 µM | 0.893
[3], 0.00152 µM | 0.875
[3], 0.00457 µM | 0.836
[3], 0.01372 µM | 0.826
[3], 0.04115 µM | 0.792
[3], 0.1235 µM | 0.767
[3], 0.3704 µM | 0.734
[3], 1.111 µM | 0.706
[3], 3.333 µM | 0.683
[3], 10 µM | 0.66
[4], 0.00017 µM | 0.953
[4], 0.00051 µM | 0.866
[4], 0.00152 µM | 0.737
[4], 0.00457 µM | 0.63
[4], 0.01372 µM | 0.564
[4], 0.04115 µM | 0.554
[4], 0.1235 µM | 0.51
[4], 0.3704 µM | 0.512
[4], 1.111 µM | 0.5
[4], 3.333 µM | 0.482
[4], 10 µM | 0.457
[5], 0.00017 µM | 0.919
[5], 0.00051 µM | 0.86
[5], 0.00152 µM | 0.763
[5], 0.00457 µM | 0.695
[5], 0.01372 µM | 0.634
[5], 0.04115 µM | 0.597
[5], 0.1235 µM | 0.567
[5], 0.3704 µM | 0.603
[5], 1.111 µM | 0.586
[5], 3.333 µM | 0.597
[5], 10 µM | 0.591
[6], 0.00017 µM | 0.98
[6], 0.00051 µM | 0.999
[6], 0.00152 µM | 1.01
[6], 0.00457 µM | 0.972
[6], 0.01372 µM | 0.97
[6], 0.04115 µM | 0.926
[6], 0.1235 µM | 0.962
[6], 0.3704 µM | 0.877
[6], 1.111 µM | 0.918
[6], 3.333 µM | 0.891
[6], 10 µM | 0.92
[7], 0.00017 µM | 0.9934
[7], 0.00051 µM | 0.975
[7], 0.00152 µM | 0.942
[7], 0.00457 µM | 0.858
[7], 0.01372 µM | 0.809
[7], 0.04115 µM | 0.775
[7], 0.1235 µM | 0.766
[7], 0.3704 µM | 0.746
[7], 1.111 µM | 0.734
[7], 3.333 µM | 0.7183
[7], 10 µM | 0.688
[8], 0.00017 µM | 0.91
[8], 0.00051 µM | 0.851
[8], 0.00152 µM | 0.825
[8], 0.00457 µM | 0.796
[8], 0.01372 µM | 0.795
[8], 0.04115 µM | 0.782
[8], 0.1235 µM | 0.747
[8], 0.3704 µM | 0.714
[8], 1.111 µM | 0.7
[8], 3.333 µM | 0.674
[8], 10 µM | 0.683
[9], 0.00017 µM | 0.901
[9], 0.00051 µM | 0.856
[9], 0.00152 µM | 0.815
[9], 0.00457 µM | 0.784
[9], 0.01372 µM | 0.759
[9], 0.04115 µM | 0.717
[9], 0.1235 µM | 0.687
[9], 0.3704 µM | 0.676
[9], 1.111 µM | 0.634
[9], 3.333 µM | 0.613
[9], 10 µM | 0.589
[10], 0.00017 µM | 0.9947
[10], 0.00051 µM | 0.936
[10], 0.00152 µM | 0.812
[10], 0.00457 µM | 0.743
[10], 0.01372 µM | 0.678
[10], 0.04115 µM | 0.681
[10], 0.1235 µM | 0.718
[10], 0.3704 µM | 0.718
[10], 1.111 µM | 0.75
[10], 3.333 µM | 0.752
[10], 10 µM | 0.682
[11], 0.00017 µM | 0.876
[11], 0.00051 µM | 0.648
[11], 0.00152 µM | 0.469
[11], 0.00457 µM | 0.424
[11], 0.01372 µM | 0.384
[11], 0.04115 µM | 0.362
[11], 0.1235 µM | 0.363
[11], 0.3704 µM | 0.353
[11], 1.111 µM | 0.352
[11], 3.333 µM | 0.34
[11], 10 µM | 0.349
[12], 0.00017 µM | 0.924
[12], 0.00051 µM | 0.758
[12], 0.00152 µM | 0.697
[12], 0.00457 µM | 0.621
[12], 0.01372 µM | 0.58
[12], 0.04115 µM | 0.567
[12], 0.1235 µM | 0.551
[12], 0.3704 µM | 0.526
[12], 1.111 µM | 0.554
[12], 3.333 µM | 0.522
[12], 10 µM | 0.5
